Test results reported in PubChem BioAssay (NCI).
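GI50 marks 50% less growth. At the TGI there is no net growth.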

Assays:
Assay in all cases: DTP human tumour cell line panel, 384-well format
OVCAR-4 ovarian = system: OVCAR-4 ovarian
SNB-75 CNS = system: SNB-75 CNS
RPMI-8226 leukemia = system: RPMI-8226 leukemia
MALME-3M melanoma = system: MALME-3M melanoma
786-0 renal = system: 786-0 renal
NCI-H23 lung = system: NCI-H23 lung
MOLT-4 leukemia = system: MOLT-4 leukemia
LOX IMVI melanoma = system: LOX IMVI melanoma
HS 578T breast = system: HS 578T breast
CAKI-1 renal = system: CAKI-1 renal
HCT-116 colon = system: HCT-116 colon
NCI-H322M lung = system: NCI-H322M lung
HCC-2998 colon = system: HCC-2998 colon

SMILES: C[C@H](N)C(=O)N1C[C@H](CCCB(O)O)[C@](N)(C(=O)O)C1
- GI50 (OVCAR-4 ovarian): > 100 µM
- TGI (OVCAR-4 ovarian): > 100 µM
- GI50 (SNB-75 CNS): > 100 µM
- TGI (SNB-75 CNS): > 100 µM
- GI50 (RPMI-8226 leukemia): > 100 µM
- TGI (RPMI-8226 leukemia): > 100 µM
- GI50 (MALME-3M melanoma): > 100 µM
- TGI (MALME-3M melanoma): > 100 µM
- GI50 (786-0 renal): > 100 µM
- TGI (786-0 renal): > 100 µM
- GI50 (NCI-H23 lung): > 100 µM
- TGI (NCI-H23 lung): > 100 µM
- GI50 (MOLT-4 leukemia): > 100 µM
- TGI (MOLT-4 leukemia): > 100 µM
- GI50 (LOX IMVI melanoma): > 100 µM
- TGI (LOX IMVI melanoma): > 100 µM
- GI50 (HS 578T breast): > 100 µM
- TGI (HS 578T breast): > 100 µM
- GI50 (CAKI-1 renal): > 100 µM
- TGI (CAKI-1 renal): > 100 µM
- GI50 (HCT-116 colon): > 100 µM
- TGI (HCT-116 colon): > 100 µM
- GI50 (NCI-H322M lung): > 100 µM
- TGI (NCI-H322M lung): > 100 µM
- GI50 (HCC-2998 colon): > 100 µM
- TGI (HCC-2998 colon): > 100 µM
